Columns and labels:
[1] = molecular target: Serine/threonine-protein kinase PLK3 (Homo sapiens) (UniProt Q9H4B4); settings: Compound concentration 1000.0 nM
[2] = molecular target: Serine/threonine-protein kinase Chk1 (Homo sapiens) (UniProt O14757); settings: Compound concentration 1000.0 nM
[3] = molecular target: Calcium/calmodulin-dependent protein kinase type II subunit beta (Homo sapiens) (UniProt Q13554); settings: Compound concentration 1000.0 nM
[4] = molecular target: Serine/threonine-protein kinase pim-3 (Homo sapiens) (UniProt Q86V86); settings: Compound concentration 1000.0 nM
[5] = molecular target: Serine/threonine-protein kinase PLK4 (Homo sapiens) (UniProt O00444); settings: Compound concentration 1000.0 nM
[6] = molecular target: Calcium/calmodulin-dependent protein kinase type 1 (Homo sapiens) (UniProt Q14012); settings: Compound concentration 1000.0 nM
[7] = molecular target: Kappa-type opioid receptor (Homo sapiens) (UniProt P41145); settings: Compound concentration 10.0 uM
[8] = tested on: Proto-oncogene tyrosine-protein kinase receptor Ret (Homo sapiens), P07949 [V804M]; settings: Compound concentration 1000.0 nM
[9] = molecular target: Serine/threonine-protein kinase TAO3 (Homo sapiens) (UniProt Q9H2K8); settings: Compound concentration 1000.0 nM
[10] = tested on: Receptor-type tyrosine-protein kinase FLT3 (Homo sapiens), P36888 [N841I]; settings: Compound concentration 1000.0 nM
[11] = tested on: Receptor-type tyrosine-protein kinase FLT3 (Homo sapiens), P36888 [UNDEFINED MUTATION]; settings: Compound concentration 1000.0 nM
[12] = molecular target: Histamine H1 receptor (Homo sapiens) (UniProt P35367); settings: Compound concentration 10.0 uM
[13] = molecular target: Tyrosine-protein kinase JAK2 (Homo sapiens) (UniProt O60674); settings: Compound concentration 1000.0 nM
[14] = molecular target: Death-associated protein kinase 2 (Homo sapiens) (UniProt Q9UIK4); settings: Compound concentration 1000.0 nM
[15] = molecular target: Tyrosine-protein kinase ZAP-70 (Homo sapiens) (UniProt P43403); settings: Compound concentration 1000.0 nM
[16] = molecular target: Mitogen-activated protein kinase kinase kinase kinase 5 (Homo sapiens) (UniProt Q9Y4K4); settings: Compound concentration 1000.0 nM
[17] = molecular target: Alpha-1A adrenergic receptor (Homo sapiens) (UniProt P35348); settings: Compound concentration 10.0 uM
[18] = molecular target: STE20-like serine/threonine-protein kinase (Homo sapiens) (UniProt Q9H2G2); settings: Compound concentration 1000.0 nM
Sequence of STE20-like serine/threonine-protein kinase (Homo sapiens) (Q9H2G2 whole entry, looked up): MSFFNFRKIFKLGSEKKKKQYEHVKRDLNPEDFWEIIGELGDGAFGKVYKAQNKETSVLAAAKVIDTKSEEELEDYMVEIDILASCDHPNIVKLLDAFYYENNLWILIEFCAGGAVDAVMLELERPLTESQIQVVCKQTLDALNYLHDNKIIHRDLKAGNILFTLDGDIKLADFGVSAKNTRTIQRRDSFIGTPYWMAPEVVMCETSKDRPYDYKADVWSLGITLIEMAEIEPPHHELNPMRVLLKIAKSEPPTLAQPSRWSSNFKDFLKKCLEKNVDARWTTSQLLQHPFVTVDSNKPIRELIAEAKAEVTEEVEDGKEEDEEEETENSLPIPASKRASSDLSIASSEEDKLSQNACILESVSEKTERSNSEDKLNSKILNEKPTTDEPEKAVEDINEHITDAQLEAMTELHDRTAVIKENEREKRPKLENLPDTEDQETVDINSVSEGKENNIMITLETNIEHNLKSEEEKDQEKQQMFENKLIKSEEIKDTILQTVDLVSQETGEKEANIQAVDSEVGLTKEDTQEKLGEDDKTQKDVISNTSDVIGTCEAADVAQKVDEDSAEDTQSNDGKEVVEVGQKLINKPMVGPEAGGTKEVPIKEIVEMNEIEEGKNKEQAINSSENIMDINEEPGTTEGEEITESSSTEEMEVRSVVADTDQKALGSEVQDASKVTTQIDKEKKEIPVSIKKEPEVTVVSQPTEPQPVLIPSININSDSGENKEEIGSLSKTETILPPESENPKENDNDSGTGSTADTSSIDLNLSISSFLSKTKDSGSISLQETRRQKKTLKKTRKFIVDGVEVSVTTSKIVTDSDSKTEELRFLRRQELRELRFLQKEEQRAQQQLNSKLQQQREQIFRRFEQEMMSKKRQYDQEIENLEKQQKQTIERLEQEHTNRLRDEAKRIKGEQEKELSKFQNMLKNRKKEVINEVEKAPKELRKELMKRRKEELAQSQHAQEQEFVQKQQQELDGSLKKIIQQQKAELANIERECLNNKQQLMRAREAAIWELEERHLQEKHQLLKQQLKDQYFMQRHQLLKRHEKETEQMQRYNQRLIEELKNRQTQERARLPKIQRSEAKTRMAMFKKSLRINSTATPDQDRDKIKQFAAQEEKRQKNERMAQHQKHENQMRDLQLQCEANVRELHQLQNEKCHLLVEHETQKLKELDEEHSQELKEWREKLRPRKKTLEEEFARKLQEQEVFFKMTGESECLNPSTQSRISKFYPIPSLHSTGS

[19] = molecular target: Receptor-interacting serine/threonine-protein kinase 2 (Homo sapiens) (UniProt O43353); settings: Compound concentration 1000.0 nM
[20] = molecular target: Serine/threonine-protein kinase MRCK alpha (Homo sapiens) (UniProt Q5VT25); settings: Compound concentration 1000.0 nM
Sequence of Serine/threonine-protein kinase MRCK alpha (Homo sapiens) (Q5VT25 whole entry): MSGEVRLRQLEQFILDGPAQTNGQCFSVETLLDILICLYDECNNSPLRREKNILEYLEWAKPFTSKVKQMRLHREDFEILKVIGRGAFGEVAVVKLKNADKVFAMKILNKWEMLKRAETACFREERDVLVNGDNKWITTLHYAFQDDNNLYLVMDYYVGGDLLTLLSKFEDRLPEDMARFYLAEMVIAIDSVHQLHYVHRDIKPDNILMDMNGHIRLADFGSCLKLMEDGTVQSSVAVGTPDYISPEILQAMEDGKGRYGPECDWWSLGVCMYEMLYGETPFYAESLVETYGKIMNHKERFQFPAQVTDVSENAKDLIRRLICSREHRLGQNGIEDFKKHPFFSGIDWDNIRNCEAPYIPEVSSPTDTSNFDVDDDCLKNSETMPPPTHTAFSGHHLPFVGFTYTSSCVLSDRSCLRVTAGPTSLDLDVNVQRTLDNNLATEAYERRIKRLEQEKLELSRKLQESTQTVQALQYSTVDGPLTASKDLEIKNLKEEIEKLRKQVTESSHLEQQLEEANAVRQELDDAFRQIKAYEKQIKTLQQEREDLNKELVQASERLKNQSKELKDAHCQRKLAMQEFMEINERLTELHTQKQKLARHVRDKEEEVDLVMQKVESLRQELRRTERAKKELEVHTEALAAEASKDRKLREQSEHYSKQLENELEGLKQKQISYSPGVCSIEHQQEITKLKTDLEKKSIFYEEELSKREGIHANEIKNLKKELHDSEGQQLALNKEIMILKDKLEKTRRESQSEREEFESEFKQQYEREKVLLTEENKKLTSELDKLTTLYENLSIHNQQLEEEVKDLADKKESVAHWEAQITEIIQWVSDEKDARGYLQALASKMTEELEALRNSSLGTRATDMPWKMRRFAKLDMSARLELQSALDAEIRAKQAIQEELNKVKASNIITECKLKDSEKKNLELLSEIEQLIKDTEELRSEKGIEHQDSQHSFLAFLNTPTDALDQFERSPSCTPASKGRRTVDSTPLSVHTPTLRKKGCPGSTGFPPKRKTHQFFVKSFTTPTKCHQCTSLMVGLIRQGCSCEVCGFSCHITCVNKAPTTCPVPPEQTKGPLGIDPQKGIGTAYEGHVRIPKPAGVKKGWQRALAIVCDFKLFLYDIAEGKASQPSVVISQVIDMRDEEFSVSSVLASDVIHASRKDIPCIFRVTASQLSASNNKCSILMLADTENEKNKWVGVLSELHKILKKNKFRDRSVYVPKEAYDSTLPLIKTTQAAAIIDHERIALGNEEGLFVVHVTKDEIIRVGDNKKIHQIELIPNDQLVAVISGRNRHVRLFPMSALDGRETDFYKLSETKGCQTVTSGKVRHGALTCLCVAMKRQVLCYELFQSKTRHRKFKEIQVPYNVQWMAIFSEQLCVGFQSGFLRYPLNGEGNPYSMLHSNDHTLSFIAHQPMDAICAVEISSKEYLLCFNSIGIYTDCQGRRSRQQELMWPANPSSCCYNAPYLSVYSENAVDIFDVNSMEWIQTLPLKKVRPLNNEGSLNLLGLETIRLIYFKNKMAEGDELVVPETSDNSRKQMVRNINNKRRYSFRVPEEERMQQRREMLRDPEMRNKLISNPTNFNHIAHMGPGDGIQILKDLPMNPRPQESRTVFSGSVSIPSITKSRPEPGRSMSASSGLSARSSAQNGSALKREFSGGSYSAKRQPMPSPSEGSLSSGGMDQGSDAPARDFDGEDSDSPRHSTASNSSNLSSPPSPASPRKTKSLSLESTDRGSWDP

[21] = molecular target: Cyclin-dependent kinase 15 (Homo sapiens) (UniProt Q96Q40); settings: Compound concentration 1000.0 nM
[22] = molecular target: Leukocyte tyrosine kinase receptor (Homo sapiens) (UniProt P29376); settings: Compound concentration 1000.0 nM
[23] = molecular target: Serine/threonine-protein kinase LATS1 (Homo sapiens) (UniProt O95835); settings: Compound concentration 1000.0 nM
[24] = tested on: Fibroblast growth factor receptor 3 (Homo sapiens), P22607 [G697C]; settings: Compound concentration 1000.0 nM
[25] = tested on: Epidermal growth factor receptor (Homo sapiens), P00533 [UNDEFINED MUTATION]; settings: Compound concentration 1000.0 nM
[26] = tested on: Epidermal growth factor receptor (Homo sapiens), P00533 [G719S]; settings: Compound concentration 1000.0 nM
[27] = tested on: Phosphatidylinositol 4,5-bisphosphate 3-kinase catalytic subunit alpha isoform (Homo sapiens), P42336 [I800L]; settings: Compound concentration 1000.0 nM
[28] = molecular target: Homeodomain-interacting protein kinase 2 (Homo sapiens) (UniProt Q9H2X6); settings: Compound concentration 1000.0 nM
[29] = molecular target: Fibroblast growth factor receptor 2 (Homo sapiens) (UniProt P21802); settings: Compound concentration 1000.0 nM
Sequence of Fibroblast growth factor receptor 2 (Homo sapiens) (P21802 22-821 limits assumed): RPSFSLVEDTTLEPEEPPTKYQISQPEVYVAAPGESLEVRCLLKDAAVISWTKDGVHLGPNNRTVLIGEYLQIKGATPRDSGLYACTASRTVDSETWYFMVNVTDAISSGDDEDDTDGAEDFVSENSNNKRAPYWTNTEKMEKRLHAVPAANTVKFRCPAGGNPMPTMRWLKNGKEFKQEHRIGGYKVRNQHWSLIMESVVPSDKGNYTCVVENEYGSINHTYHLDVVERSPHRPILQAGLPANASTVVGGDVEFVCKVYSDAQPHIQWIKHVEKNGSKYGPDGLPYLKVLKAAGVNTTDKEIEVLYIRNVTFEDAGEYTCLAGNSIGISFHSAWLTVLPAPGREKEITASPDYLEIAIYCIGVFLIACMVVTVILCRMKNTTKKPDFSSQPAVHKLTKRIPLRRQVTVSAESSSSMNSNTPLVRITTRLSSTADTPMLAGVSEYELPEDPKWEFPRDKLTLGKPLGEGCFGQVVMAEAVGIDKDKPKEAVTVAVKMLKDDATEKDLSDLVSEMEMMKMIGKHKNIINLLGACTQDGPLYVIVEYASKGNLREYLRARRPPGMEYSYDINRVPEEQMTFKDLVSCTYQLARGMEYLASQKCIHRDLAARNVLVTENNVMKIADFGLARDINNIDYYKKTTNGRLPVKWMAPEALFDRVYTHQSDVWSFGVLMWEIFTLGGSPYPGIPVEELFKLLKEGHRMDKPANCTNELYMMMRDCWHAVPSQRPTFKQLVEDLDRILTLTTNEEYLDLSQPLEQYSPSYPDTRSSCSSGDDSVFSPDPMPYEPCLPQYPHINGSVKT

[30] = molecular target: Ephrin type-A receptor 2 (Homo sapiens) (UniProt P29317); settings: Compound concentration 1000.0 nM
[31] = molecular target: Serine/threonine-protein kinase 36 (Homo sapiens) (UniProt Q9NRP7); settings: Compound concentration 1000.0 nM
[32] = tested on: eIF-2-alpha kinase GCN2 (Homo sapiens), Q9P2K8 [S808G]; settings: Compound concentration 1000.0 nM
[33] = molecular target: Ribosomal protein S6 kinase beta-1 (Homo sapiens) (UniProt P23443); settings: Compound concentration 1000.0 nM
[34] = molecular target: Phosphatidylinositol 3-kinase C2 domain-containing subunit gamma (Homo sapiens) (UniProt O75747); settings: Compound concentration 1000.0 nM
[35] = molecular target: Cyclin-dependent kinase-like 1 (Homo sapiens) (UniProt Q00532); settings: Compound concentration 1000.0 nM
Sequence of Cyclin-dependent kinase-like 1 (Homo sapiens) (Q00532 whole entry): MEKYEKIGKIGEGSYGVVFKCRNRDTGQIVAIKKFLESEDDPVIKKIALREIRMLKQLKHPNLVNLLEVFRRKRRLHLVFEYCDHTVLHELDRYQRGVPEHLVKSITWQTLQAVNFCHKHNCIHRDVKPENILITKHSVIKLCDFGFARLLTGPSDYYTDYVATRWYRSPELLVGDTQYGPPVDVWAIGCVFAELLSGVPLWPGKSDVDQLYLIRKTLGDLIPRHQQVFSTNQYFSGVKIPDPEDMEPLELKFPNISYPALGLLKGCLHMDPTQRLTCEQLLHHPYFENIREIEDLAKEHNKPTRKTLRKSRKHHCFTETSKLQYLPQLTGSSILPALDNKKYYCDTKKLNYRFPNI

[36] = molecular target: Insulin receptor (Homo sapiens) (UniProt P06213); settings: Compound concentration 1000.0 nM
[37] = molecular target: Tyrosine-protein kinase ABL1 (Homo sapiens) (UniProt P00519); settings: Compound concentration 1000.0 nM
[38] = molecular target: Serine/threonine-protein kinase BRSK2 (Homo sapiens) (UniProt Q8IWQ3); settings: Compound concentration 1000.0 nM
Sequence of Serine/threonine-protein kinase BRSK2 (Homo sapiens) (Q8IWQ3 whole entry): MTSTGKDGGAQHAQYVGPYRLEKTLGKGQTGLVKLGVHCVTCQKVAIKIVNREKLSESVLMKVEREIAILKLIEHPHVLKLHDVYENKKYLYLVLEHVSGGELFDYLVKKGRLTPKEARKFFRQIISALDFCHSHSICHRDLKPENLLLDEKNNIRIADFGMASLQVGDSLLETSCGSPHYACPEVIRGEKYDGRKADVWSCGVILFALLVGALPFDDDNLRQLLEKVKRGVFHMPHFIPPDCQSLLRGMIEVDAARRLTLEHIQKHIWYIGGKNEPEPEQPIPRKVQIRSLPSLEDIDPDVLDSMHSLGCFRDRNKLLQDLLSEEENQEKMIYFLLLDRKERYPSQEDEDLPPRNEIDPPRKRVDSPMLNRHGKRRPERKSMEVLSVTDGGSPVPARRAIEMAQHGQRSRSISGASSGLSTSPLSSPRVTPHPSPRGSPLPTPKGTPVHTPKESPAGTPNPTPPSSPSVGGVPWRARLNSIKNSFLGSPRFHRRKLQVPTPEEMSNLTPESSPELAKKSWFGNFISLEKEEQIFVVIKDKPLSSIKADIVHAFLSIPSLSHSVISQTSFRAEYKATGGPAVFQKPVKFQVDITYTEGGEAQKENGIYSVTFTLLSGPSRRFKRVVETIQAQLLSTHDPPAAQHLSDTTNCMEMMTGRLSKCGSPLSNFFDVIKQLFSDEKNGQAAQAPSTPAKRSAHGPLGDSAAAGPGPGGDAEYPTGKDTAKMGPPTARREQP

[39] = molecular target: Cyclin-dependent kinase 4 (Homo sapiens) (UniProt P11802); settings: Compound concentration 1000.0 nM
[40] = molecular target: RAF proto-oncogene serine/threonine-protein kinase (Homo sapiens) (UniProt P04049); settings: Compound concentration 1000.0 nM
[41] = tested on: ALK tyrosine kinase receptor (Homo sapiens), Q9UM73 [L1196M]; settings: Compound concentration 1000.0 nM
[42] = molecular target: Serine/threonine-protein kinase RIO3 (Homo sapiens) (UniProt O14730); settings: Compound concentration 1000.0 nM
[43] = molecular target: Calcium/calmodulin-dependent protein kinase type 1G (Homo sapiens) (UniProt Q96NX5); settings: Compound concentration 1000.0 nM
[44] = molecular target: Tyrosine-protein kinase Blk (Homo sapiens) (UniProt P51451); settings: Compound concentration 1000.0 nM
[45] = molecular target: Focal adhesion kinase 1 (Homo sapiens) (UniProt Q05397); settings: Compound concentration 1000.0 nM

Which residual activity [1] does the source give for CO[C@@H](C)c1c(Nc2ccc([C@@H](N(C)C(=O)C3CCS(=O)(=O)CC3)C(F)(F)F)cc2)cnc2cc(Cl)nn12 [NVS-MALT1-C] here?
Its residual activity is 84%.

And the residual activity [2]?
Its residual activity is 95%.

What about the residual activity [3] of the same molecule?
The residual activity was 96%.

And the residual activity [4]?
Its residual activity is 97%.

And the residual activity [5]?
Its residual activity is 100%.

What about the residual activity [6] of the same molecule?
The residual activity was 82%.

What about the inhibition [7] of the same molecule?
Its inhibition is 29.4%.

And the residual activity [8]?
Its residual activity is 87%.

What about the residual activity [9] of the same molecule?
Its residual activity is 100%.

And the residual activity [10]?
The residual activity was 57%.

What about the residual activity [11] of the same molecule?
Its residual activity is 59%.

And the inhibition [12]?
Its inhibition is -9.88%.

And the residual activity [13]?
Its residual activity is 98%.

What about the residual activity [14] of the same molecule?
Its residual activity is 41%.

And the residual activity [15]?
The residual activity was 100%.

And the residual activity [16]?
Its residual activity is 100%.

And the inhibition [17]?
Its inhibition is -3.44%.

And the residual activity [18]?
Its residual activity is 83%.

And the residual activity [19]?
Its residual activity is 83%.

And the residual activity [20]?
Its residual activity is 94%.

What about the residual activity [21] of the same molecule?
Its residual activity is 94%.

What about the residual activity [22] of the same molecule?
The residual activity was 95%.

What about the residual activity [23] of the same molecule?
The residual activity was 98%.

What about the residual activity [24] of the same molecule?
The residual activity was 84%.

And the residual activity [25]?
The residual activity was 90%.

And the residual activity [26]?
Its residual activity is 96%.

And the residual activity [27]?
Its residual activity is 71%.

And the residual activity [28]?
Its residual activity is 100%.

And the residual activity [29]?
Its residual activity is 84%.

And the residual activity [30]?
The residual activity was 83%.

What about the residual activity [31] of the same molecule?
The residual activity was 94%.

What about the residual activity [32] of the same molecule?
The residual activity was 68%.

What about the residual activity [33] of the same molecule?
Its residual activity is 90%.

And the residual activity [34]?
Its residual activity is 88%.

What about the residual activity [35] of the same molecule?
Its residual activity is 74%.

What about the residual activity [36] of the same molecule?
Its residual activity is 95%.

And the residual activity [37]?
The residual activity was 74%.

What about the residual activity [38] of the same molecule?
The residual activity was 90%.

What about the residual activity [39] of the same molecule?
The residual activity was 100%.

What about the residual activity [40] of the same molecule?
The residual activity was 100%.

And the residual activity [41]?
The residual activity was 94%.

And the residual activity [42]?
The residual activity was 90%.

And the residual activity [43]?
The residual activity was 100%.

What about the residual activity [44] of the same molecule?
Its residual activity is 56%.

What about the residual activity [45] of the same molecule?
Its residual activity is 90%.

Which results are given for CO[C@@H](C)c1c(Nc2ccc([C@H](N(C)C(=O)C3CCS(=O)(=O)CC3)C(F)(F)F)cc2)cnc2cc(Cl)nn12 [NVS-MALT1]?
residual activity [1]: 86%; residual activity [2]: 91%; residual activity [3]: 94%; residual activity [4]: 86%; residual activity [5]: 100%; residual activity [6]: 66%; inhibition [7]: 31.9%; residual activity [8]: 94%; residual activity [9]: 100%; residual activity [10]: 23%; residual activity [11]: 85%; inhibition [12]: 10.2%; residual activity [13]: 100%; residual activity [14]: 86%; residual activity [15]: 100%; residual activity [16]: 88%; inhibition [17]: -7.59%; residual activity [18]: 81%; residual activity [19]: 74%; residual activity [20]: 86%; residual activity [21]: 74%; residual activity [22]: 98%; residual activity [23]: 88%; residual activity [24]: 86%; residual activity [25]: 100%; residual activity [26]: 100%; residual activity [27]: 55%; residual activity [28]: 100%; residual activity [29]: 91%; residual activity [30]: 100%; residual activity [31]: 91%; residual activity [32]: 78%; residual activity [33]: 100%; residual activity [34]: 88%; residual activity [35]: 57%; residual activity [36]: 87%; residual activity [37]: 63%; residual activity [38]: 79%; residual activity [39]: 100%; residual activity [40]: 97%; residual activity [41]: 100%; residual activity [42]: 82%; residual activity [43]: 100%; residual activity [44]: 87%; residual activity [45]: 85%

Source: ChEMBL document CHEMBL4507320, “Data for DCP probe NVS-MALT1” (2021)
